According to patent publication US20220267380A1, “Glycopeptides Increasing Lipid Synthesis” (TFCHEM, priority 2019, published 2022):

System: normal human dermal fibroblasts (NHDF)
Experiment: Gene expression in NHDF, full transcriptome analysis with Affymetrix U219 microarray
Assay type: cell-based
Conditions: NHDF
Procedure: In the present study, the transcriptional effects (modulation of gene expression) of compounds 1, 2, 3 and 4 were evaluated on normal human dermal fibroblasts (NHDF) under basal conditions.
More specifically, the comparative analysis of the different transcriptomic profiles was performed using an Affymetrix GeneAtlas platform and the human “full transcriptome” U219 chip, which includes 36,000 transcripts and variants.
Fibroblasts were seeded in 24-well plates and cultured in culture medium for 24 hours. The medium was then replaced by assay medium and cells were incubated for further 24 hours. The medium was replaced by assay medium containing or not (control) the test compounds at different concentrations and the cells were preincubated for 24 hours. All experimental conditions were performed in triplicate. At the end of incubation, the culture supernatants were removed and the cells were washed in a phosphate buffered saline (PBS) solution and immediately frozen at −80° C.
Before RNA extraction, the replicates were pooled. Total RNA was extracted from each sample using TriPure Isolation Reagent® according to the supplier's instructions. The amount and quality of total RNA were evaluated for all samples using capillary electrophoresis (Bioanalyzer 2100, Agilent technologies). From each RNA, a labeled and amplified anti-sens RNA (aRNA) was obtained using GeneChip 3′IVT PLUS Kit (Affymetrix). For each labeled and amplified aRNA sample the profiles were evaluated before and after fragmentation using capillary electrophoresis (Bioanalyzer 2100, Agilent technologies). Hybridization of fragmented aRNA onto Affymetrix® U219 chip (36,000 transcripts and variants) was performed in the GeneAtlas™ fluidics Affymetrix® hybridization station for 20 hours at 45° C. U219 chip was analyzed using the GeneAtlas™ Imaging station (Affymetrix®—resolution 2 μm) to generate fluorescence intensity data.
Expression Console and Quality controls: data were normalized with the Expression Console (Affymetrix®) software using RMA algorithm. Then a quality control of the labeling and the hybridization was performed. Hybridization and labeling steps successfully passed the quality controls for these experiments.
Data reduction, Excel file description: once normalized with Expression Console, data were transferred into a Microsoft Excel® file in order to go further into data reduction.
Calculation and tools were added in order to rank and sort data, and finally to support data interpretation. Detection thresholds in terms of fold change were defined and applied on normalized data.
Results are considered and presented or commented per gene (and not probe). A probe set is a collection of probes designed to interrogate a given sequence of a gene. For data interpretation, the most important relative expression value obtained with one probe is considered to be representative of the corresponding gene. The file contains the following data: • Relative expression (RE) for each sample, • Fold change calculation, • Gene information.

[1] = relative expression adjusted to detection limit (<20), 10 mg/ml, 24 h

## C[C@H](NC(=O)[C@H](C)NC(=O)[C@@H](N)CCCCNCC(F)(F)[C@]1(O)O[C@H](CO)[C@H](O)[C@H](O)[C@H]1O)C(=O)O [Compound 1]
  effect of treatment of NHDF on lipid synthesis (transcriptional): up regulation of lipid and cholesterol synthesis
10 mg/ml, 24 h, vs control
  Fold change, ABCA1: 2.11
  Fold change, ABHD4: 2.05
  Fold change, ABHD5: 2.63
  Fold change, ACAT2: 2.12
  Fold change, AKR1C1: 2.13
  Fold change, AKR1C2: 2.60
  Fold change, CH25H: 0.36
  Fold change, CYP51A1///LRRD1: 2.20
  Fold change, DHCR7: 3.68
  Fold change, HMGCR: 2.02
  Fold change, HSD17B7: 2.44
  Fold change, HSD17B14: 2.00
  Fold change, IDI1: 2.01
  Fold change, LPIN1: 2.46
  Fold change, LRP8: 2.95
  Fold change, MSMO1: 2.03
  Fold change, MVD: 2.45
  Fold change, NEU1: 2.74
  Fold change, PCYT2: 2.41
  Fold change, PLD1: 2.15
  Fold change, PTPLA: 2.31
  Fold change, SOAT1: 2.01
  Fold change, SREBF1: 3.24
10 mg/ml, 24 h, vs control, probe set 11715460_a_at
  Fold change, DHCR24: 2.05
10 mg/ml, 24 h, vs control, probe set 11716114_x_at
  Fold change, POR: 2.20
10 mg/ml, 24 h, vs control, probe set 11716337_s_at
  Fold change, INSIG1: 2.46
10 mg/ml, 24 h, vs control, probe set 11716338_a_at
  Fold change, INSIG1: 3.42
10 mg/ml, 24 h, vs control, probe set 11716339_a_at
  Fold change, INSIG1: 3.38
10 mg/ml, 24 h, vs control, probe set 11716987_a_at
  Fold change, HMGCS1: 3.15
10 mg/ml, 24 h, vs control, probe set 11717295_s_at
  Fold change, APOD: 0.30
10 mg/ml, 24 h, vs control, probe set 11717620_a_at
  Fold change, LSS: 2.08
10 mg/ml, 24 h, vs control, probe set 11717859_a_at
  Fold change, EBP: 2.68
10 mg/ml, 24 h, vs control, probe set 11718366_s_at
  Fold change, FDPS: 2.02
10 mg/ml, 24 h, vs control, probe set 11719098_a_at
  Fold change, MVK: 2.08
10 mg/ml, 24 h, vs control, probe set 11719908_a_at
  Fold change, GBA///GBAP1: 2.93
10 mg/ml, 24 h, vs control, probe set 11720028_x_at
  Fold change, LDLR: 2.53
10 mg/ml, 24 h, vs control, probe set 11720029_a_at
  Fold change, LDLR: 2.11
10 mg/ml, 24 h, vs control, probe set 11722208_a_at
  Fold change, PTGS1: 2.77
10 mg/ml, 24 h, vs control, probe set 11722209_a_at
  Fold change, PTGS1: 2.62
10 mg/ml, 24 h, vs control, probe set 11722210_a_at
  Fold change, PTGS1: 3.14
10 mg/ml, 24 h, vs control, probe set 11724199_x_at
  Fold change, LSS: 2.21
10 mg/ml, 24 h, vs control, probe set 11724792_a_at
  Fold change, PGS1: 2.01
10 mg/ml, 24 h, vs control, probe set 11730180_s_at
  Fold change, KDSR: 2.16
10 mg/ml, 24 h, vs control, probe set 11730181_s_at
  Fold change, KDSR: 2.29
10 mg/ml, 24 h, vs control, probe set 11731324_a_at
  Fold change, LSS: 2.53
10 mg/ml, 24 h, vs control, probe set 11736100_a_at
  Fold change, GBA: 2.74
10 mg/ml, 24 h, vs control, probe set 11736285_a_at
  Fold change, CHKA: 2.27
10 mg/ml, 24 h, vs control, probe set 11736286_a_at
  Fold change, CHKA: 3.00
10 mg/ml, 24 h, vs control, probe set 11737039_a_at
  Fold change, PHLDB2: 2.96
10 mg/ml, 24 h, vs control, probe set 11737041_a_at
  Fold change, PHLDB2: 2.45
10 mg/ml, 24 h, vs control, probe set 11737042_s_at
  Fold change, PHLDB2: 2.97
10 mg/ml, 24 h, vs control, probe set 11737043_x_at
  Fold change, PHLDB2: 2.47
10 mg/ml, 24 h, vs control, probe set 11743916_a_at
  Fold change, NPC1: 6.53
10 mg/ml, 24 h, vs control, probe set 11744899_a_at
  Fold change, FADS2: 2.64
10 mg/ml, 24 h, vs control, probe set 11744902_a_at
  Fold change, FADS2: 2.09
10 mg/ml, 24 h, vs control, probe set 11745459_a_at
  Fold change, FADS1///MIR1908: 4.20
10 mg/ml, 24 h, vs control, probe set 11746281_a_at
  Fold change, LPCAT3: 2.31
10 mg/ml, 24 h, vs control, probe set 11746723_a_at
  Fold change, NPC1: 4.53
10 mg/ml, 24 h, vs control, probe set 11746974_a_at
  Fold change, LDLR: 2.99
10 mg/ml, 24 h, vs control, probe set 11747747_a_at
  Fold change, MVK: 2.02
10 mg/ml, 24 h, vs control, probe set 11748045_x_at
  Fold change, LDLR: 2.84
10 mg/ml, 24 h, vs control, probe set 11748292_a_at
  Fold change, GBA///GBAP1: 2.57
10 mg/ml, 24 h, vs control, probe set 11748368_x_at
  Fold change, POR: 2.03
10 mg/ml, 24 h, vs control, probe set 11748428_a_at
  Fold change, PGS1: 2.41
10 mg/ml, 24 h, vs control, probe set 11749042_a_at
  Fold change, DHCR24: 2.15
10 mg/ml, 24 h, vs control, probe set 11749332_x_at
  Fold change, EBP: 2.66
10 mg/ml, 24 h, vs control, probe set 11749730_a_at
  Fold change, PTGS1: 3.89
10 mg/ml, 24 h, vs control, probe set 11750975_x_at
  Fold change, GBA: 2.68
10 mg/ml, 24 h, vs control, probe set 11751085_a_at
  Fold change, GBA: 3.02
10 mg/ml, 24 h, vs control, probe set 11751086_x_at
  Fold change, GBA: 2.37
10 mg/ml, 24 h, vs control, probe set 11751098_a_at
  Fold change, GBA///GBAP1: 3.03
10 mg/ml, 24 h, vs control, probe set 11751099_x_at
  Fold change, GBA///GBAP1: 2.75
10 mg/ml, 24 h, vs control, probe set 11751337_a_at
  Fold change, DHCR24: 2.27
10 mg/ml, 24 h, vs control, probe set 11751338_x_at
  Fold change, DHCR24: 2.26
10 mg/ml, 24 h, vs control, probe set 11752670_a_at
  Fold change, FADS1///MIR1908: 4.05
10 mg/ml, 24 h, vs control, probe set 11753439_a_at
  Fold change, GBA///GBAP1: 2.64
10 mg/ml, 24 h, vs control, probe set 11754819_x_at
  Fold change, GBA///GBAP1: 2.59
10 mg/ml, 24 h, vs control, probe set 11754918_s_at
  Fold change, HMGCS1: 2.32
10 mg/ml, 24 h, vs control, probe set 11754939_x_at
  Fold change, FADS2: 2.11
10 mg/ml, 24 h, vs control, probe set 11755123_x_at
  Fold change, LPCAT3: 2.37
10 mg/ml, 24 h, vs control, probe set 11755251_x_at
  Fold change, FADS1///MIR1908: 4.13
10 mg/ml, 24 h, vs control, probe set 11756065_x_at
  Fold change, APOD: 0.24
10 mg/ml, 24 h, vs control, probe set 11757008_a_at
  Fold change, LPCAT3: 2.86
10 mg/ml, 24 h, vs control, probe set 11757009_x_at
  Fold change, LPCAT3: 2.10
10 mg/ml, 24 h, vs control, probe set 11758249_s_at
  Fold change, FDPS: 2.10
[1]
  REadj2, ABCA1: 979.20
  REadj2, ABHD4: 65.43
  REadj2, ABHD5: 212.72
  REadj2, ACAT2: 1280.94
  REadj2, AKR1C1: 3725.47
  REadj2, AKR1C2: 209.16
  REadj2, CH25H: 60.89
  REadj2, CYP51A1///LRRD1: 1291.92
  REadj2, DHCR7: 695.09
  REadj2, HMGCR: 395.78
  REadj2, HSD17B7: 91.10
  REadj2, HSD17B14: 46.74
  REadj2, IDI1: 1244.81
  REadj2, LPIN1: 240.89
  REadj2, LRP8: 93.15
  REadj2, MSMO1: 1789.72
  REadj2, MVD: 262.34
  REadj2, NEU1: 555.40
